The values that follow come from patent US9937183B2, “Antimicrobial compounds and methods of making and using the same” (priority 2013, dated 2018).

Converted amounts (≈) assume the structure as drawn. Where two headings read alike, the source gives them in different places.

Holding throughout (assay type): cell-based
In one assay the test system is P. aeruginosa ATCC27853. The experiment in a line: MIC, microtiter-based liquid assay (CLSI). To be noted: Pseudomonas aeruginosa.
The subject of another assay is B. mallei. The experiment in a line: microbe, parasite or virus in culture. To be noted: Burkholderia mallei; for MIC50: read-out: B. mallei MIC50; for MIC90: read-out: B. mallei MIC90; for MIC: read-out: B. mallei MIC Range.
In a further assay the test system is K. pneumoniae 1705949. The experiment in a line: MIC, microtiter-based liquid assay (CLSI). To be noted: Klebsiella pneumoniae, MDR strain.
Assay [1] concerns E. faecium A6349 VanA + LNZ-R. The experiment in a line: MIC, microtiter-based liquid assay (CLSI). To be noted: Enterococcus faecium.
The next assay deals with F. tularensis. Briefly: microbe, parasite or virus in culture. To be noted: Francisella tularensis; for MIC50: read-out: F. tularensis MIC50; for MIC: read-out: F. tularensis MIC Range.
In another assay the test system is A. baumannii 1705943. Briefly: MIC, microtiter-based liquid assay (CLSI). To be noted: Acinetobacter baumannii.
The next assay has as its system A. baumannii 1705936. Briefly: MIC, microtiter-based liquid assay (CLSI). To be noted: Acinetobacter baumannii, MDR strain.
Another assay deals with E. coli MG1655 parent. Briefly: MIC, microtiter-based liquid assay (CLSI). To be noted: Escherichia coli.
For assay [2], the system named is S. pneumoniae 02J1175 Mef(A). The experiment in a line: MIC, microtiter-based liquid assay (CLSI). To be noted: Streptococcus pneumoniae.
Another assay relates to S. aureus 11540 MRSA. Briefly: MIC, microtiter-based liquid assay (CLSI). To be noted: Staphylococcus aureus.
Another assay has as its system E. coli ATCC25922. Briefly: MIC, microtiter-based liquid assay (CLSI). To be noted: Escherichia coli.
The next assay concerns Y. pestis. The experiment in a line: microbe, parasite or virus in culture. To be noted: for MIC50: read-out: Y. pestis MIC50; for MIC: read-out: Y. pestis MIC Range.
For the next assay, the system named is E. coli CAG12184 TolC. The experiment in a line: MIC, microtiter-based liquid assay (CLSI). To be noted: Escherichia coli, CAG12184TOLC.
The subject of another assay is E. coli 1705878. The experiment in a line: MIC, microtiter-based liquid assay (CLSI). To be noted: Escherichia coli, MDR strain.
Another assay concerns K. pneumoniae 1705966. The experiment in a line: MIC, microtiter-based liquid assay (CLSI). To be noted: Klebsiella pneumoniae.
The subject of a further assay is B. anthracis. Briefly: microbe, parasite or virus in culture. To be noted: Bacillus anthracis.
Another assay deals with P. aeruginosa 1705886. Briefly: MIC, microtiter-based liquid assay (CLSI). To be noted: Pseudomonas aeruginosa.
For a further assay, the system named is B. pseudomallei. Briefly: microbe, parasite or virus in culture. To be noted: Burkholderia pseudomallei.
The next assay concerns P. aeruginosa 1705904. Briefly: MIC, microtiter-based liquid assay (CLSI). To be noted: Pseudomonas aeruginosa, MDR strain.
Where [3] appears, read: ATCC25922, read-out: MIC E. coli ATCC25922 + 50% HS.
Where [4] appears, read: ATCC25922, read-out: MIC E. coli ATCC25922.

Turning to `CC(C)c1cc(CCC[C@H](C)N)cc(-c2cc3cn(-c4ccc([C@H](C)NCCCNC(=N)N)cc4)c(=O)nc3[nH]2)c1F` [Compound 7], the MIC with P. aeruginosa ATCC27853 was 8 µg/mL (≈ 13.9 µM); in the assay with B. mallei it was 0.03 to 0.5 µg/mL (≈ 0.0522 to 0.87 µM); in the assay with K. pneumoniae 1705949, 1 µg/mL (≈ 1.74 µM); in assay [1], 2 µg/mL; with F. tularensis, 0.03 to 0.5 µg/mL (≈ 0.0522 to 0.87 µM); with A. baumannii 1705943 it was 0.5 µg/mL (≈ 0.87 µM). Also, the MIC in the assay with A. baumannii 1705936 worked out at 4 µg/mL (≈ 6.96 µM); with E. coli MG1655 parent it was 0.5 µg/mL (≈ 0.87 µM); in assay [2] it was 0.25 µg/mL (≈ 0.435 µM); against S. aureus 11540 MRSA, 0.5 µg/mL (≈ 0.87 µM); in the assay on E. coli ATCC25922 (setting [3]), 1 µg/mL; in the assay with E. coli ATCC25922 (setting [4]) it was 0.5 µg/mL (≈ 0.87 µM). In addition, the MIC was 0.06 to 1 µg/mL (≈ 0.104 to 1.74 µM) in the assay on Y. pestis (Yersinia pestis); 0.5 µg/mL (≈ 0.87 µM) in the assay with E. coli CAG12184 TolC; 1 µg/mL (≈ 1.74 µM) against E. coli 1705878; 0.5 µg/mL (≈ 0.87 µM) in the assay with K. pneumoniae 1705966; 0.03 to 0.5 µg/mL (≈ 0.0522 to 0.87 µM) in the assay with B. anthracis (read-out: B. anthracis MIC Range); 4 µg/mL (≈ 6.96 µM) in the assay with P. aeruginosa 1705886. In the assay with B. pseudomallei (read-out: B. pseudomallei MIC Range), the MIC was 1 to 8 µg/mL (≈ 1.74 to 13.9 µM). In addition, the MIC50 turned out to be 0.06 µg/mL (≈ 0.104 µM) with B. mallei; 0.06 µg/mL (≈ 0.104 µM) with F. tularensis; 0.25 µg/mL (≈ 0.435 µM) with Y. pestis (Yersinia pestis); 0.12 µg/mL (≈ 0.209 µM) with B. anthracis (read-out: B. anthracis MIC50); 2 µg/mL (≈ 3.48 µM) in the assay on B. pseudomallei (read-out: B. pseudomallei MIC50). In addition, the MIC90 was 0.12 µg/mL (≈ 0.209 µM) with B. mallei; 0.12 µg/mL (≈ 0.209 µM) in the assay on F. tularensis (read-out: F. tularensis MIC90); 0.5 µg/mL (≈ 0.87 µM) with Y. pestis (Yersinia pestis, read-out: Y. pestis MIC90); 0.25 µg/mL (≈ 0.435 µM) with B. anthracis (read-out: B. anthracis MIC90); 4 µg/mL (≈ 6.96 µM) in the assay on B. pseudomallei (read-out: B. pseudomallei MIC90).

Turning to `C[C@H](NCCCNC(=N)N)c1ccc(-n2cc3cc(-c4cc(C5CCC(CN)CC5)cc(Cl)c4F)[nH]c3nc2=O)cc1` (stereo partly shown) [Compound 8], the MIC is 4 µg/mL (≈ 6.74 µM) with P. aeruginosa ATCC27853; 0.03 to 0.25 µg/mL (≈ 0.0506 to 0.421 µM) in the assay on B. mallei; 2 µg/mL (≈ 3.37 µM) in the assay on K. pneumoniae 1705949; 4 µg/mL in [1]; 0.03 to 2 µg/mL (≈ 0.0506 to 3.37 µM) in the assay with F. tularensis; 0.5 µg/mL (≈ 0.843 µM) against A. baumannii 1705943. Also, the MIC with A. baumannii 1705936 was 1 µg/mL (≈ 1.69 µM); with E. coli MG1655 parent, 0.25 µg/mL (≈ 0.421 µM); in [2] it was 0.5 µg/mL (≈ 0.843 µM); with S. aureus 11540 MRSA it was 0.25 µg/mL (≈ 0.421 µM); in the assay on P. aeruginosa 1705904 it was 4 µg/mL (≈ 6.74 µM); in the assay on E. coli ATCC25922 (setting [3]), 2 µg/mL. Further, the MIC is 0.5 µg/mL (≈ 0.843 µM) in the assay with E. coli ATCC25922 (setting [4]); 0.03 to 0.5 µg/mL (≈ 0.0506 to 0.843 µM) with Y. pestis (Yersinia pestis); 0.25 µg/mL (≈ 0.421 µM) in the assay with E. coli CAG12184 TolC; 1 µg/mL (≈ 1.69 µM) in the assay on E. coli 1705878; 1 µg/mL (≈ 1.69 µM) against K. pneumoniae 1705966; 4 µg/mL (≈ 6.74 µM) in the assay on P. aeruginosa 1705886. In addition, the MIC50 in the assay with B. mallei was at most 0.03 µg/mL; with F. tularensis, 0.06 µg/mL (≈ 0.101 µM); in the assay on Y. pestis (Yersinia pestis), 0.12 µg/mL (≈ 0.202 µM). For the same molecule, the MIC90 in the assay on B. mallei was 0.12 µg/mL (≈ 0.202 µM). The “Y. pestis MIC50” value in the assay with Y. pestis came to 0.06 µg/mL.

With `C=CC[C@H](NCCCNC(=N)N)c1ccc(-n2cc3cc(-c4cc(CCC[C@H](C)N)cc(Cl)c4F)[nH]c3nc2=O)cc1` [Compound 9], the MIC turned out to be 2 µg/mL (≈ 3.37 µM) in the assay on P. aeruginosa ATCC27853; 0.5 µg/mL (≈ 0.843 µM) against K. pneumoniae 1705949; 0.5 µg/mL in [1]; 0.25 µg/mL (≈ 0.421 µM) in the assay on A. baumannii 1705943; 0.5 µg/mL (≈ 0.843 µM) in the assay with A. baumannii 1705936; 0.25 µg/mL (≈ 0.421 µM) in the assay with E. coli MG1655 parent. The MIC in assay [2] was 0.25 µg/mL (≈ 0.421 µM); against S. aureus 11540 MRSA, 0.25 µg/mL (≈ 0.421 µM); against P. aeruginosa 1705904, 4 µg/mL (≈ 6.74 µM); with E. coli ATCC25922 (setting [3]), 0.5 µg/mL; with E. coli ATCC25922 (setting [4]), 0.25 µg/mL (≈ 0.421 µM); with E. coli CAG12184 TolC, 0.25 µg/mL (≈ 0.421 µM). Further, the MIC with E. coli 1705878 was 0.5 µg/mL (≈ 0.843 µM); in the assay on K. pneumoniae 1705966, 0.25 µg/mL (≈ 0.421 µM); with P. aeruginosa 1705886, 2 µg/mL (≈ 3.37 µM).

As for `CN(C)c1cc(NC(=O)CNC(C)(C)C)c(O)c2c1C[C@H]1C[C@H]3[C@H](N(C)C)C(O)=C(C(N)=O)C(=O)[C@@]3(O)C(O)=C1C2=O` [Tigecycline, reference compound], the MIC is 8 µg/mL (≈ 13.7 µM) against P. aeruginosa ATCC27853; 1 µg/mL (≈ 1.71 µM) against K. pneumoniae 1705949; at most 0.06 µg/mL in assay [1]; 0.125 µg/mL (≈ 0.213 µM) in the assay with A. baumannii 1705943; 2 µg/mL (≈ 3.41 µM) with A. baumannii 1705936; 0.25 µg/mL (≈ 0.427 µM) in the assay with E. coli MG1655 parent. Moreover, the MIC in [2] was at most 0.06 µg/mL; in the assay on S. aureus 11540 MRSA, 0.25 µg/mL (≈ 0.427 µM); with P. aeruginosa 1705904, above 32 µg/mL; in the assay with E. coli ATCC25922 (setting [3]), 0.25 µg/mL; in the assay on E. coli ATCC25922 (setting [4]), 0.125 µg/mL (≈ 0.213 µM); in the assay with E. coli CAG12184 TolC, 0.125 µg/mL (≈ 0.213 µM). Moreover, the MIC with E. coli 1705878 came out at 0.5 µg/mL (≈ 0.854 µM); against K. pneumoniae 1705966, 0.5 µg/mL (≈ 0.854 µM); against P. aeruginosa 1705886 it was 8 µg/mL (≈ 13.7 µM).

For the molecule `NC[C@H]1O[C@H](O[C@H]2[C@H](O)[C@@H](O[C@H]3O[C@H](CO)[C@@H](O)[C@H](N)[C@H]3O)[C@H](N)C[C@@H]2N)[C@H](N)C[C@@H]1O` [Tobramycin, reference compound], the MIC against P. aeruginosa ATCC27853 was 0.5 µg/mL (≈ 1.07 µM); with K. pneumoniae 1705949, above 128 µg/mL; in [1], above 128 µg/mL; in the assay with A. baumannii 1705943, at most 0.25 µg/mL; with A. baumannii 1705936, 8 µg/mL (≈ 17.1 µM); with E. coli MG1655 parent, 1 µg/mL (≈ 2.14 µM). In addition, the MIC in [2] turned out to be 16 µg/mL (≈ 34.2 µM); with S. aureus 11540 MRSA, 0.5 µg/mL (≈ 1.07 µM); against P. aeruginosa 1705904, 128 µg/mL (≈ 274 µM); in the assay with E. coli ATCC25922 (setting [3]) it was 1 µg/mL; with E. coli ATCC25922 (setting [4]) it was 1 µg/mL (≈ 2.14 µM); in the assay on E. coli CAG12184 TolC, 1 µg/mL (≈ 2.14 µM). Besides, the values for the MIC in the assay on E. coli 1705878, against K. pneumoniae 1705966 and in the assay with P. aeruginosa 1705886 were 64 µg/mL (≈ 137 µM), at most 0.25 µg/mL and 0.5 µg/mL (≈ 1.07 µM), respectively.
